From patent US8642801B2 (BHI Limited Partnership, priority 2003, dated 2014)
Where a name gives a salt, the structure may show the parent alone.

Target: T1, IAPP (Homo sapiens, UniProt P10997)
T1 construct: which is a 37 amino acid peptide, derived from a larger precursor peptide, called pro-IAPP
T1 sequence (P10997 34-70 limits assumed): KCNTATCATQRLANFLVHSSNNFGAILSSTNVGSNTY
Assay: MS (electrospray mass spectrometry) binding assay for IAPP
Conditions: Table 3C; 20 μM Aβ peptide, 100 μM compound (so in the source)
Description: (§1) The ability of a therapeutic compound of the invention to inhibit an interaction between an amyloidogenic protein and a glycoprotein or proteoglycan constituent of a basement membrane can be assessed by an in vitro binding assay, such as that described in U.S. Pat. No. 5,164,295, the contents of which are hereby incorporated by reference. Alternatively, the ability of a compound to bind to an amyloidogenic protein or to inhibit the binding of a basement membrane constituent (e.g., HSPG) to an amyloidogenic protein (e.g., Aβ) can be measured using a mass spectrometry assay where soluble protein, e.g., Aβ, IAPP, β2M is incubated with the compound. A compound which binds to, e.g., Aβ, will induce a change in the mass spectrum of the protein. Exemplary protocols for a mass spectrometry assay employing Aβ and IAPP can be found in the Examples, the results of which are provided in Table 3. The protocol can readily be modified to adjust the sensitivity of the data, e.g., by adjusting the amount of protein and/or compound employed. Thus, e.g., binding might be detected for test compounds noted as not having detectable binding employing less sensitive test protocols.
(§2) The test compounds were synthesized and screened by mass spectrometry (“MS”) assays, except for selected compounds which were purchased from a commercial source. The MS assay gives data on the ability of compounds to bind to proteins, in this example, to β-amyloid and IAPP.
(§3) In the MS assay for Aβ40, samples were prepared as aqueous solutions (adding 20% ethanol if necessary to solubilize in water), 200 μM of a test compound and 20 μM of solubilized Aβ40, or 400 μM of a test compound and 40 μM of solubilized Aβ40. The pH value of each sample was adjusted to 7.4 (±0.2) by addition of 0.1% aqueous sodium hydroxide. The solutions were then analyzed by electrospray ionization mass spectrometry using a Waters ZQ 4000 mass spectrometer. Samples were introduced by direct infusion at a flow-rate of 25 μL/min within 2 hr. after sample preparation. The source temperature was kept at 70° C. and the cone voltage was 20 V for all the analysis. Data were processed using Masslynx 3.5 software. The MS assay gives data on the ability of compounds to bind to soluble Aβ, whereas the ThT, EM and CD assays give data on inhibition of fibrillogenesis. In Table 3, a blank box means that a value was not determined for that compound in that assay.
The key below describes the codes used in Table 3A to quantify the binding based on the intensity of the absorption.

Row | SMILES | MS binding IAPP
1 | CCOc1ccccc1CNCCCS(=O)(=O)O [JD] | ++ (40-74% binding=(++))
2 | O=S(=O)([O-])CCC[N+]12CCC(CC1)CC2 [JM] | + (20-39% binding=(+))
3 | CC(CCNC1CCCc2ccccc21)S(=O)(=O)O (stereo not drawn) [JF, 4-(1,2,3,4-tetrahydro-1-naphthylamino)-2-butanesulfonic acid] | ++ (40-74% binding=(++))
4 | COc1ccc(OC)c(CNCCCS(=O)(=O)O)c1 [JB] | + (20-39% binding=(+))
5 | C[C@H]([C@@H](O)c1ccccc1)N(C)CCCS(=O)(=O)O [IZ] | +++ (75-100% binding=(+++))
6 | CCCC(CO)NCCC(C)S(=O)(=O)O (racemic) [JL, 4-[(dl)-1-hydroxy-2-pentyl]amino-2-butane sulfonic acid] | ++ (40-74% binding=(++))
7 | CCCCCCCCNCCCCS(=O)(=O)O [LJ, 4-(octylamino)-1-butanesulfonic acid] | +++ (75-100% binding=(+++))
8 | O=S(=O)([O-])CCCC[N+]12CCC(CC1)CC2 [LF] | + (20-39% binding=(+))
9 | O=S(=O)(O)CCCNCc1ccccc1OC(F)(F)F [IX] | +++ (75-100% binding=(+++))
10 | C[C@@H]([C@H](O)c1ccccc1)N(C)CCCS(=O)(=O)O [JE] | ++ (40-74% binding=(++))
11 | COc1ccccc1CNCCCS(=O)(=O)O [IW] | +++ (75-100% binding=(+++))
12 | CCCC(CO)NCC(O)CS(=O)(=O)O (stereo not drawn) | ++ (40-74% binding=(++))
13 | COc1ccc(CNCCCCS(=O)(=O)O)cc1OC [LM] | +++ (75-100% binding=(+++))
14 | CCCCCCCCNCCC(C)S(=O)(=O)O (stereo not drawn) [JG, 4-(octylamino)-2-butanesulfonic acid] | +++ (75-100% binding=(+++))
15 | CC(CCNC1CC2CCC1C2)S(=O)(=O)O (stereo not drawn) [JJ, 4-(bicyclo[2.2.1]hept-2-ylamino)-2-butanesulfonic acid] | +++ (75-100% binding=(+++))
16 | CCCC(CO)NCCCCS(=O)(=O)O (racemic) [LL, 4-[(dl)-1-hydroxy-2-pentyl]amino-1-butanesulfonic acid] | ++ (40-74% binding=(++))
17 | O=S(=O)(O)CC(O)CN1CCCCC1 (stereo not drawn) [KA, 2-hydroxy-3-piperidin-1-ylpropane-1-sulfonic acid] | ++ (40-74% binding=(++))

Row | SMILES | MS binding IAPP
18 | O=S(=O)(O)CC(O)CNC1CCCc2ccccc21 (stereo not drawn) [JZ, 2-hydroxy-3-(1,2,3,4-tetrahydronaphthalen-1-ylamino)propane-1-sulfonic acid] | +++ (75-100% binding=(+++))
19 | CCCCCCCCCNCCC(C)S(=O)(=O)[O-].[Na+] (stereo not drawn) [JN, 4-(nonylamino)-2-butanesulfonic acid] | + (20-39% binding=(+))
20 | O=S(=O)([O-])CC(O)C[N+]12CCC(CC1)CC2 (stereo not drawn) [JX, 1-(3-sulfo-2-hydroxypropyl) quinuclidinium, inner salt] | ++ (40-74% binding=(++))
21 | CC(CCN(C)C)S(=O)(=O)[O-].[Na+] (stereo not drawn) [JO, 4-(dimethylamino)-2-butanesulfonic acid] | ++ (40-74% binding=(++))
22 | CCNCCCCS(=O)(=O)O [LE, 4-(ethylamino)-1-butanesulfonic acid] | ++ (40-74% binding=(++))
23 | O=S(=O)(O)CCCNC(Cc1ccccc1)c1ccccc1 (stereo not drawn) [JC] | + (20-39% binding=(+))
24 | O=S(=O)(O)CC(O)CNC1CC2CCC1C2 (stereo not drawn) [KI, 3-(bicyclo[2.2.1]hept-2-ylamino)-2-hydroxy-1-propanesulfonic acid] | + (20-39% binding=(+))
25 | C[C@H](NCCCS(=O)(=O)O)c1ccccc1 [JA] | ++ (40-74% binding=(++))
26 | CN(C)CC(O)CS(=O)(=O)[O-].[Na+] (stereo not drawn) [JT, 3-(dimethylamino)-2-hydroxy-1-propane sulfonic acid, sodium salt] | + (20-39% binding=(+))
27 | CC(C)CCNCC(O)CS(=O)(=O)O (stereo not drawn) [KK, 2-hydroxy-3-[(3-methylbutyl)amino]-1-propane sulfonic acid] | +++ (75-100% binding=(+++))
28 | CC(C)(C)NCCCCS(=O)(=O)O [LD, 4-(tert-butylamino)-1-butanesulfonic acid] | ++ (40-74% binding=(++))
29 | O=S(=O)(O)CCCCCNC1CC2CCC1C2 (stereo not drawn) [LQ] | +++ (75-100% binding=(+++))
30 | CC(CCN1CCCCC1)S(=O)(=O)O (stereo not drawn) [JS, 4-piperidin-1-yl-2-butanesulfonic acid] | + (20-39% binding=(+))
31 | O=S(=O)(O)CCCCNC12CC3CC(CC(C3)C1)C2 [LI, 4-(adamantyl)amino-1-butanesulfonic acid] | +++ (75-100% binding=(+++))
32 | CN(C)CCS(=O)(=O)O [KQ] | + (20-39% binding=(+))
33 | CCCCCCCCNCC(O)CS(=O)(=O)O (stereo not drawn) [JW] | ++ (40-74% binding=(++))

Target: T2, Aβ1-40 (Homo sapiens, UniProt P05067)
T2 construct: most is normally secreted as a 40 (“Aβ1-40”) or 42 (“Aβ1-42”) amino acid peptide
T2 sequence (P05067 672-711 limits assumed): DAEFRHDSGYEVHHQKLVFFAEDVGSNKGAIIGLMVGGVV
Assay: MS (electrospray mass spectrometry) binding assay for Aβ40
Conditions: Table 3B; 30 μM Aβ peptide, 150 μM compound
Description: as §1, §2
as §3, with “The” for “In the MS assay for Aβ40, samples were prepared as aqueous solutions (adding 20% ethanol if necessary to solubilize in water), 200 μM of a test compound and 20 μM of solubilized Aβ40, or 400 μM of a test compound and 40 μM of solubilized Aβ40. The”

Row | SMILES | MS binding Aβ1-40
34 | CC(CCN)S(=O)(=O)O (stereo not drawn) [JR, 4-amino-2-butanesulfonic acid] | ++ (40-59% binding=(++))
35 | CCCCCCNC(=O)NCCCS(=O)(=O)[O-].[Na+] [AI] | +++ (60-100% binding=(+++))
36 | C[C@@H](NCCCS(=O)(=O)O)c1ccccc1 [IY] | ++ (40-59% binding=(++))
37 | CC(CCNC1C2CC3CC(C2)CC1C3)S(=O)(=O)O (stereo not drawn) [JI, 4-(2-adamantyl)amino-2-butanesulfonic acid] | +++ (60-100% binding=(+++))
38 | CC(CCNC12CC3CC(CC(C3)C1)C2)S(=O)(=O)O (stereo not drawn) [JH, 4-(adamantyl)amino-2-butanesulfonic acid] | ++ (40-59% binding=(++))

Same assay, conditions: Table 3C; 20 μM Aβ peptide, 100 μM compound

Row | SMILES | MS binding Aβ1-40
39 | CCOc1ccccc1CNCCCS(=O)(=O)O [JD] | + (20-39% binding=(+))
40 | O=S(=O)([O-])CCC[N+]12CCC(CC1)CC2 [JM] | − (<20%=(−))
41 | CC(CCNC1CCCc2ccccc21)S(=O)(=O)O (stereo not drawn) [JF, 4-(1,2,3,4-tetrahydro-1-naphthylamino)-2-butanesulfonic acid] | + (20-39% binding=(+))
42 | COc1ccc(OC)c(CNCCCS(=O)(=O)O)c1 [JB] | + (20-39% binding=(+))
43 | C[C@H]([C@@H](O)c1ccccc1)N(C)CCCS(=O)(=O)O [IZ] | − (<20%=(−))
44 | CCCC(CO)NCCC(C)S(=O)(=O)O (racemic) [JL, 4-[(dl)-1-hydroxy-2-pentyl]amino-2-butane sulfonic acid] | ++ (40-74% binding=(++))
45 | O=S(=O)(O)CCCNCc1ccccc1OC(F)(F)F [IX] | ++ (40-74% binding=(++))
46 | C[C@@H]([C@H](O)c1ccccc1)N(C)CCCS(=O)(=O)O [JE] | − (<20%=(−))
47 | COc1ccccc1CNCCCS(=O)(=O)O [IW] | ++ (40-74% binding=(++))
48 | CC(CCNC1CC2CCC1C2)S(=O)(=O)O (stereo not drawn) [JJ, 4-(bicyclo[2.2.1]hept-2-ylamino)-2-butanesulfonic acid] | ++ (40-74% binding=(++))
49 | CCCCCCCCCNCCC(C)S(=O)(=O)[O-].[Na+] (stereo not drawn) [JN, 4-(nonylamino)-2-butanesulfonic acid] | ++ (40-74% binding=(++))
50 | CC(CCN(C)C)S(=O)(=O)[O-].[Na+] (stereo not drawn) [JO, 4-(dimethylamino)-2-butanesulfonic acid] | + (20-39% binding=(+))
51 | C[C@H](NCCCS(=O)(=O)O)c1ccccc1 [JA] | + (20-39% binding=(+))

Same assay, conditions: Table 3D; 40 μM Aβ peptide, 400 μM compound

Row | SMILES | MS binding Aβ1-40
52 | COc1ccc(NCCCS(=O)(=O)O)cc1 [HL] | ++ (40-74% binding=(++))
53 | O=S(=O)(O)CCCn1ccnc1 [HR] | ++ (40-74% binding=(++))
54 | Nc1ccc(NCCCS(=O)(=O)O)cc1 [HM] | + (20-39% binding=(+))
55 | O=S(=O)(O)CCCNc1ccc(F)cc1 [HT] | ++ (40-74% binding=(++))
56 | O=S(=O)(O)CCCN1CCC=C(c2ccccc2)C1 [IG] | +++ (75-100% binding=(+++))
57 | O=S(=O)(O)CCCn1cccc1 [HV] | ++ (40-74% binding=(++))
58 | O=S(=O)(O)CCCNC1CN2CCC1CC2 (stereo not drawn) [HQ] | + (20-39% binding=(+))
59 | CC(C)(C)OC(=O)NCCCS(=O)(=O)O [IA] | +++ (75-100% binding=(+++))
60 | O=S(=O)(O)CCCNc1ccccc1O [HU] | +++ (75-100% binding=(+++))

Target: T1, IAPP
Assay: MS (electrospray mass spectrometry) binding assay for IAPP
Conditions: Table 3B; 30 μM Aβ peptide, 150 μM compound (so in the source)

Row | SMILES | MS binding IAPP
61 | CC(CCN)S(=O)(=O)O (stereo not drawn) [JR, 4-amino-2-butanesulfonic acid] | +++ (60-100% binding=(+++))
62 | C[C@@H](NCCCS(=O)(=O)O)c1ccccc1 [IY] | +++ (60-100% binding=(+++))
63 | CC(CCNC1C2CC3CC(C2)CC1C3)S(=O)(=O)O (stereo not drawn) [JI, 4-(2-adamantyl)amino-2-butanesulfonic acid] | +++ (60-100% binding=(+++))
64 | CC(CCNC12CC3CC(CC(C3)C1)C2)S(=O)(=O)O (stereo not drawn) [JH, 4-(adamantyl)amino-2-butanesulfonic acid] | +++ (60-100% binding=(+++))

Same assay, conditions: Table 3D; 40 μM Aβ peptide, 400 μM compound (so in the source)

Row | SMILES | MS binding IAPP
65 | COc1ccc(NCCCS(=O)(=O)O)cc1 [HL] | + (20-39% binding=(+))
66 | O=S(=O)(O)CCCn1ccnc1 [HR] | − (<20%=(−))
67 | Nc1ccc(NCCCS(=O)(=O)O)cc1 [HM] | − (<20%=(−))
68 | O=S(=O)(O)CCCNc1ccc(F)cc1 [HT] | + (20-39% binding=(+))
69 | O=S(=O)(O)CCCN1CCC=C(c2ccccc2)C1 [IG] | ++ (40-74% binding=(++))
70 | O=S(=O)(O)CCCn1cccc1 [HV] | + (20-39% binding=(+))
71 | CC(C)(C)OC(=O)NCCCS(=O)(=O)O [IA] | + (20-39% binding=(+))
72 | O=S(=O)(O)CCCNc1ccccc1O [HU] | + (20-39% binding=(+))
